Experimental data published in the CheMixHub drug solubility set.

Assay: xn = mol fraction of the nth substance listed, in the solute-free solvent

CC(C)C(=O)Nc1ccc([N+](=O)[O-])c(C(F)(F)F)c1 + C1CCOC1 + CC(C)O
solubility (g/100 g solution)
Conditions | 278.15 K | 283.15 K | 288.15 K | 293.15 K | 298.15 K | 303.15 K | 308.15 K | 313.15 K | 318.15 K | 323.15 K
x2 = 0.1 | 22.2 | 24.2 | 27 | 30.4 | 34.3 | 39 | 43.5 | 47.9 | 52 | 56.1
x2 = 0.2 | 31.7 | 33.5 | 35.9 | 38.8 | 42.4 | 46.1 | 49.8 | 53.3 | 56.9 | 61
x2 = 0.3 | 36.9 | 40.3 | 43.7 | 47 | 50.5 | 53.9 | 57.1 | 60.3 | 63.6 | 66.8
x2 = 0.4 | 40.4 | 43.2 | 46.4 | 50.1 | 53.3 | 56.9 | 60.1 | 63.1 | 65.9 | 68.8
x2 = 0.5 | 43.9 | 46.5 | 49.6 | 52.6 | 55.8 | 59.1 | 62.3 | 65.3 | 68.1 | 70.9
x2 = 0.6 | 47.4 | 49.7 | 52.6 | 55.8 | 58.7 | 61.9 | 64.7 | 67.6 | 70.2 | 73.3
x2 = 0.7 | 50.4 | 51.9 | 54.7 | 57.8 | 61.2 | 64.4 | 67.1 | 70 | 72.6 | 75.4
x2 = 0.8 | 52.5 | 54.5 | 57.4 | 60.7 | 63.7 | 66.4 | 69 | 71.8 | 74.2 | 77.1
x2 = 0.9 | 55.2 | 57.1 | 59.7 | 62.6 | 65.8 | 68.7 | 71.3 | 73.7 | 75.9 | 78.2

CC1=NNC(=O)N(N=Cc2cccnc2)C1 + C1COCCO1 + CC(C)O
solubility (g/100 g solution)
Conditions | 288.15 K | 293.15 K | 298.15 K | 303.15 K | 308.15 K | 313.15 K | 318.15 K
x2 = 0.1457 | 0.106 | 0.125 | 0.147 | 0.169 | 0.197 | 0.227 | 0.261
x2 = 0.3126 | 0.11 | 0.127 | 0.149 | 0.173 | 0.2 | 0.229 | 0.263
x2 = 0.5057 | 0.113 | 0.132 | 0.154 | 0.176 | 0.202 | 0.233 | 0.268
x2 = 0.7318 | 0.116 | 0.135 | 0.156 | 0.179 | 0.206 | 0.235 | 0.27

CC(C)C(=O)Nc1ccc([N+](=O)[O-])c(C(F)(F)F)c1 + C1COCCO1 + O
solubility (g/100 g solution)
Conditions | 283.15 K | 288.15 K | 293.15 K | 298.15 K | 303.15 K | 308.15 K | 313.15 K | 318.15 K | 323.15 K
x2 = 0.02222 | 0.00748 | 0.00971 | 0.0126 | 0.0163 | 0.0208 | 0.0262 | 0.033 | 0.0406 | 0.0498
x2 = 0.04865 | 0.0654 | 0.0845 | 0.108 | 0.135 | 0.17 | 0.212 | 0.26 | 0.316 | 0.382
x2 = 0.0806 | 0.391 | 0.472 | 0.574 | 0.691 | 0.832 | 0.993 | 1.17 | 1.38 | 1.63
x2 = 0.12 | 1.34 | 1.61 | 1.89 | 2.2 | 2.56 | 2.98 | 3.46 | 3.97 | 4.55
x2 = 0.1698 | 3.72 | 4.33 | 5.02 | 5.81 | 6.62 | 7.58 | 8.62 | 9.74 | 11
x2 = 0.2348 | 7.42 | 8.68 | 9.98 | 11.4 | 13 | 14.8 | 16.6 | 18.7 | 20.9
x2 = 0.3231 | 12.2 | 14.1 | 16.3 | 18.5 | 20.8 | 23.4 | 26.1 | 28.9 | 31.9
x2 = 0.45 | 18.1 | 20.6 | 23.5 | 26.6 | 29.8 | 33.3 | 36.7 | 40.4 | 44.1
x2 = 0.648 | 24.9 | 28 | 31.2 | 34.6 | 38.2 | 41.8 | 45.6 | 49.4 | 53.2

Nc1cccc2c1CN(C1CCC(=O)NC1=O)C2=O (centres undefined) + CC#N + CC(C)O
solubility (g/100 g solution)
Conditions | 273.15 K | 278.15 K | 283.15 K | 288.15 K | 293.15 K | 298.15 K | 303.15 K | 308.15 K | 313.15 K | 318.15 K
x2 = 0.2679 | 0.218 | 0.231 | 0.251 | 0.274 | 0.304 | 0.339 | 0.373 | 0.411 | 0.451 | 0.494
x2 = 0.4939 | 0.278 | 0.304 | 0.339 | 0.374 | 0.415 | 0.459 | 0.511 | 0.569 | 0.627 | 0.694
x2 = 0.6871 | 0.349 | 0.383 | 0.42 | 0.463 | 0.503 | 0.55 | 0.602 | 0.666 | 0.732 | 0.802
x2 = 0.8541 | 0.363 | 0.393 | 0.428 | 0.464 | 0.506 | 0.552 | 0.609 | 0.666 | 0.744 | 0.82

Nc1cccc2c1CN(C1CCC(=O)NC1=O)C2=O (centres undefined) + CC#N + CO
solubility (g/100 g solution)
Conditions | 273.15 K | 278.15 K | 283.15 K | 288.15 K | 293.15 K | 298.15 K | 303.15 K | 308.15 K | 313.15 K | 318.15 K
x2 = 0.1633 | 0.557 | 0.585 | 0.618 | 0.646 | 0.686 | 0.727 | 0.771 | 0.821 | 0.871 | 0.922
x2 = 0.3423 | 0.674 | 0.696 | 0.729 | 0.767 | 0.805 | 0.849 | 0.89 | 0.935 | 0.98 | 1.03
x2 = 0.5394 | 0.771 | 0.811 | 0.855 | 0.901 | 0.948 | 0.997 | 1.05 | 1.1 | 1.16 | 1.22
x2 = 0.7574 | 0.653 | 0.682 | 0.713 | 0.752 | 0.794 | 0.84 | 0.89 | 0.942 | 0.996 | 1.05
